The nature of assay [1]: DPPH free radical scavenging assay. Conditions: for DPPH radical scavenging activity (inhibition rate): 20 μg/mL, SD in brackets. Format: biochemical. The protocol: The in vitro antioxidant activity tests were conducted according to previous reports. Among them, the DPPH free radical scavenging assay was slightly modified. Briefly, the DPPH material was precisely weighed, ethanol solution was added to obtain a concentration of 0.1 mmol/L (to use immediately, or store in the dark). Then, the compounds (100 µL, 40 µg/mL) with DPPH solution (100 µL) (Ai) were added to 96-well plates and incubated for 30 min at room temperature. Subsequently, the activity was measured using the Thermo Scientific Varioskan LUX ([…], VL0L00D0, USA), with an absorbance of 570 nm. Vitamin C (VC) (40 µg/mL) was used as the positive control.

The test system of a further assay is LO2 cells. Nature of the assay: Cytotoxic activity (MTS assay), LO2 normal cells. The assay is classed as cell-based, human. The settings on record: Homo sapiens, L02; 10 µM; SD in brackets; read-out: LO2 cell inhibitory activity (Table S7). Background: Tetrazolium assays rely on reduction of a dye to a coloured formazan, in cell work by metabolically active cells.

For the next assay, the system named is HepG2 cells. In words: Cytotoxic activity (MTS assay), HepG2. The assay is classed as cell-based, human. The settings on record: Homo sapiens, HepG2, 10 µM; SD in brackets; read-out: HepG2 cell inhibitory activity (Table S4).
Assay [2] in a line: ABTS free radical scavenging assay. The assay is classed as biochemical. Conditions: for ABTS radical scavenging activity (inhibition rate): 20 μg/mL, SD in brackets. The protocol: The third assay, the ABTS free radical scavenging screen was performed by previous experiments with slight changes. First, we needed to prepare for the ABTS^+ solution. […] Then, they were mixed with equal volume at room temperature and kept away from light for 12 h, the mixed solution was diluted with ethanol until the absorbance of […]. Thus, the ABTS^+ solution was obtained. Furthermore, the compounds (100 µL, 40 µg/mL) with ABTS^+ solution (100 µL) were also added to the 96-well plates (as the value of Ai) and were interacted for 10 min at room temperature in the dark, then the absorbance at 734 nm was measured. VC was used as the positive control. Antioxidant capacity was calculated according to the first formula (the value of 100 µL ethanol with 100 µL ABTS^+ solution as A0, the value of 100 µL compounds with 100 µL ethanol as Aj). All experiments were carried out in triplicate.

A further assay has as its system A549 cells. In words: Cytotoxic activity (MTS assay), A549. Format: cell-based, human. Conditions: Homo sapiens, A549; 10 µM; SD in brackets; read-out: A549 cell inhibitory activity (Table S5).
Assay [3] is described as follows: PTIO free radical scavenging assay. The assay is classed as biochemical. Conditions: for PTIO radical scavenging activity (inhibition rate): 8 μg/mL, SD in brackets. On the procedure:
PTIO free radical scavenging was also performed following previous reports with some modification. VC was used as the positive control. PTIO radicals were dissolved with phosphate buffer (PBS) (pH 7.4, 50 mM) with a concentration of 0.05 mg/mL. Then, the samples (40 µL, 40 µg/mL) and PTIO solution (160 µL) were added into 96-well plates (as the value of Ai). After being thoroughly mixed, the reaction solution was incubated at 37 °C in a water-bath for 2 h. Then, the absorbance was measured at 557 nm. PTIO free radical scavenging was calculated using the above equation. (40 µL PBS with 160 µL PTIO as A0, 40 µL compounds with 160 µL PBS as Aj).

In the next assay the test system is MCF7 cells. Nature of the assay: Cytotoxic activity (MTS assay), MCF7. The settings on record: Homo sapiens, MCF7; 10 µM; SD in brackets; read-out: MCF-7 cell inhibitory activity (Table S6). Format: cell-based, human.

`COc1ccc(-c2coc3cc(O)ccc3c2=O)cc1O` [Compound 19, calycosin]: the “DPPH radical scavenging activity (inhibition rate)” value in assay [1] is 25.6% (1.1%). Further, the inhibition at 10 µM with LO2 cells was determined as 16.6%; with HepG2 cells, 4.3%; in the assay on A549 cells, 6.4%. Further, the “ABTS radical scavenging activity (inhibition rate)” value in assay [2] is recorded as 51.3% (2.4%). The “PTIO radical scavenging activity (inhibition rate)” value in assay [3] is on record as 37.0% (0.7%).
As to `CC(C)=CCC(Cc1c(O)cc(O)c2c1OC(c1ccc(O)cc1O)CC2=O)C(C)CO` (centres unmarked) [Compound 9, kushenol Q], the “DPPH radical scavenging activity (inhibition rate)” value in assay [1] is recorded as 30.4% (5.4%). Further, the inhibition at 10 µM in the assay with LO2 cells was 5.3%; with HepG2 cells it was 3.5%; with MCF7 cells it was 4.5%; in the assay on A549 cells, -10.9%. Moreover, the “ABTS radical scavenging IC50” value in assay [2] came out at 3.72 µg/mL. Besides, in assay [3], the “PTIO radical scavenging activity (inhibition rate)” value is given as 36.7% (0.8%).
With `O=C(O)c1ccc(O)cc1O` [Compound 27, b-resorcylic acid], in assay [1], the “DPPH radical scavenging activity (inhibition rate)” value is listed as 23.1% (2.5%). The inhibition at 10 µM in the assay with LO2 cells came to 1.9%; in the assay with HepG2 cells, 1.9%; in the assay on MCF7 cells, 14.1%; in the assay on A549 cells it was 22.8%. In addition, in assay [2], the “ABTS radical scavenging activity (inhibition rate)” value was 63.4% (1.4%).
Consider `O=c1c(-c2ccc(O)cc2)coc2cc(O)cc(O)c12` [Compound 18, genistein], for which the “DPPH radical scavenging activity (inhibition rate)” value in assay [1] is recorded as 28.0% (6.2%). In addition, the inhibition at 10 µM in the assay with LO2 cells was found to be 5%; in the assay on HepG2 cells, 1%; with MCF7 cells it was 4.3%; in the assay on A549 cells, 6.6%. In addition, the “ABTS radical scavenging activity (inhibition rate)” value in assay [2] is 69.0% (1.4%). Further, the “PTIO radical scavenging activity (inhibition rate)” value in assay [3] is given as 35.8% (2.0%).
For the compound `C=C(C)[C@H](CCC(C)(C)O)Cc1c(O)cc(OC)c2c1O[C@H](c1ccc(O)cc1O)CC2=O` [Compound 12, kurarinol], in assay [1], the “DPPH radical scavenging activity (inhibition rate)” value is recorded as 30.8% (1.9%). For the same compound, the inhibition at 10 µM came to 11.4% with LO2 cells, 0.9% with HepG2 cells, 4.8% in the assay with MCF7 cells and 37% in the assay with A549 cells. Moreover, the “ABTS radical scavenging IC50” value in assay [2] was found to be 1.31 µg/mL. For the same compound, the “PTIO radical scavenging activity (inhibition rate)” value in assay [3] was 37.5% (1.7%).
With `O=c1ccc2ccc(O)c(O)c2o1` [Compound 25, 7,8-dihydroxycoumarin], the “DPPH radical scavenging IC50” value in assay [1] came out at 0.80 µg/mL. The inhibition at 10 µM in the assay with LO2 cells was 8.6%; in the assay with HepG2 cells, 8.5%; in the assay on MCF7 cells, 4.8%; in the assay on A549 cells, 32.4%. The “ABTS radical scavenging activity (inhibition rate)” value in assay [2] is listed as 97.8% (1.8%). The “PTIO radical scavenging activity (inhibition rate)” value in assay [3] is 46.3% (4.8%).
For the compound `COc1ccc(-c2coc3cc(O)ccc3c2=O)cc1` [Compound 20, formononetin], in assay [1], the “DPPH radical scavenging activity (inhibition rate)” value is reported as 20.2% (1.0%). Also, the inhibition at 10 µM with LO2 cells was 5.8%; in the assay on HepG2 cells, 1.4%; in the assay with MCF7 cells, 8.7%; in the assay on A549 cells, -6.2%. Besides, the “ABTS radical scavenging activity (inhibition rate)” value in assay [2] is listed as 23.3% (0.9%). Besides, the “PTIO radical scavenging activity (inhibition rate)” value in assay [3] is 36.2% (2.0%).
Take `C=C(C)[C@H](CC=C(C)C)Cc1c(O)cc(OC)c(C(=O)/C=C/c2ccc(O)cc2O)c1O` [Compound 6, kuraridine]: in assay [1], the “DPPH radical scavenging activity (inhibition rate)” value was 41.9% (5.6%). The inhibition at 10 µM in the assay with LO2 cells was -0.2%; in the assay on HepG2 cells, 0.9%; in the assay with MCF7 cells it was 15%; with A549 cells, 2%. Further, in assay [2], the “ABTS radical scavenging IC50” value stood at 3.52 µg/mL. For the same compound, the “PTIO radical scavenging activity (inhibition rate)” value in assay [3] was 40.6% (2.2%).
In the case of `O=C(/C=C/c1ccc(O)cc1)c1ccc(O)cc1O` [Compound 8, isoliquiritigenin], the inhibition at 10 µM was -2.1% in the assay with LO2 cells, 1.7% with HepG2 cells, 7.2% in the assay on MCF7 cells and -5.7% in the assay on A549 cells.
Take `O=c1cc(-c2ccc(O)cc2)oc2cccc(O)c12` [Compound 22, 5,4′-dihydroxyflavone]: the “DPPH radical scavenging activity (inhibition rate)” value in assay [1] is reported as 34.6% (3.4%). For the same compound, the inhibition at 10 µM was -4.6% in the assay with LO2 cells, 0.6% in the assay with HepG2 cells, 9% in the assay on MCF7 cells and 29.7% in the assay on A549 cells. The “ABTS radical scavenging activity (inhibition rate)” value in assay [2] is 76.3% (4.7%). Also, in assay [3], the “PTIO radical scavenging activity (inhibition rate)” value is listed as 39.4% (1.0%).
Regarding `O=C1O[C@H]([C@@H](O)CO)C(O)=C1O` [VC, vitamin C, reference compound], in assay [1], the “DPPH radical scavenging activity (inhibition rate)” value is on record as 97%.
In the case of `O=C(O)c1ccc(O)cc1` [Compound 28, 4-hydroxybenzoic acid], the “DPPH radical scavenging activity (inhibition rate)” value in assay [1] is reported as 20.4% (8.6%). The inhibition at 10 µM in the assay with LO2 cells was 2.8%; in the assay on HepG2 cells it was 10.2%; in the assay on MCF7 cells it was 1.1%; in the assay on A549 cells it was 15.5%. For the same compound, the “ABTS radical scavenging activity (inhibition rate)” value in assay [2] is reported as 2.2% (0.9%). The “PTIO radical scavenging activity (inhibition rate)” value in assay [3] is reported as 37.3% (2.3%).
Regarding `COc1cc(O)c(CC=C(C)C)c2oc(-c3ccc(O)cc3)c(O)c(=O)c12` [Compound 14, sophoflavescenol], the “DPPH radical scavenging IC50” value in assay [1] worked out at 3.52 µg/mL. In addition, the inhibition at 10 µM is 5.5% in the assay on LO2 cells, 11.4% in the assay on HepG2 cells, 2.8% in the assay with MCF7 cells and 6.9% with A549 cells. In addition, the “ABTS radical scavenging IC50” value in assay [2] turned out to be 2.91 µg/mL. Also, the “PTIO radical scavenging IC50” value in assay [3] is 5.51 µg/mL. Also, the “PTIO radical scavenging activity (inhibition rate)” value in assay [3] is reported as 55.0% (9.4%).
With `O=c1ccc2ccc(O)cc2o1` [Compound 24, 7-hydroxycoumarin], in assay [1], the “DPPH radical scavenging activity (inhibition rate)” value is 25.2% (3.7%). In addition, the inhibition at 10 µM in the assay with LO2 cells was -0.3%; with MCF7 cells it was 5.7%; in the assay on A549 cells, 21.4%. The “ABTS radical scavenging activity (inhibition rate)” value in assay [2] was 16.8% (3.2%). Further, the “PTIO radical scavenging activity (inhibition rate)” value in assay [3] is listed as 36.6% (3.1%).
For `O=c1c(O)c(-c2ccc(O)c(O)c2)oc2cc(O)cc(O)c12` [Compound 16, quercetin], in assay [1], the “DPPH radical scavenging IC50” value was determined as 1.11 µg/mL. Further, the inhibition at 10 µM in the assay on LO2 cells came to 9.8%; in the assay on HepG2 cells it was 4.6%; in the assay with MCF7 cells, 11.9%; in the assay with A549 cells, 12.1%. Moreover, the “ABTS radical scavenging IC50” value in assay [2] stood at 0.90 µg/mL. The “PTIO radical scavenging IC50” value in assay [3] amounted to 4.71 µg/mL. In addition, in assay [3], the “PTIO radical scavenging activity (inhibition rate)” value is on record as 62.0% (2.2%).
In the case of `O=C1C[C@@H](c2ccc(O)cc2)Oc2cc(O)cc(O)c21` [Compound 11, naringenin], the “DPPH radical scavenging activity (inhibition rate)” value in assay [1] is listed as 24.5% (3.9%). Further, the inhibition at 10 µM in the assay on LO2 cells was determined as 5.8%; with HepG2 cells, 3.6%; in the assay with MCF7 cells it was 0.7%; with A549 cells, 14.7%. In addition, the “ABTS radical scavenging activity (inhibition rate)” value in assay [2] is on record as 55.4% (2.2%). Besides, the “PTIO radical scavenging activity (inhibition rate)” value in assay [3] is 37.8% (2.2%).
For `COc1ccc(C(=O)O)c(O)c1` [Compound 26, 4-methoxysalicylic acid], the “DPPH radical scavenging activity (inhibition rate)” value in assay [1] is recorded as 25.4% (4.9%). The inhibition at 10 µM is -6.2% in the assay with LO2 cells, 1.5% in the assay with HepG2 cells, 0.7% with MCF7 cells and 9.4% in the assay with A549 cells. In addition, the “ABTS radical scavenging activity (inhibition rate)” value in assay [2] is listed as 72.9% (3.0%). In addition, the “PTIO radical scavenging activity (inhibition rate)” value in assay [3] was 37.7% (1.6%).
Consider `COc1cc(O)c2c(=O)c(-c3ccc(O)c(OC)c3)coc2c1` [Compound 17, 7,3′-di-O-methyl], for which, in assay [1], the “DPPH radical scavenging activity (inhibition rate)” value was 42.0% (1.4%). For the same compound, the inhibition at 10 µM with LO2 cells was 1.1%; in the assay on HepG2 cells, 8.7%; in the assay with MCF7 cells, 5.3%; in the assay with A549 cells it was 40.9%. For the same compound, the “ABTS radical scavenging IC50” value in assay [2] worked out at 2.91 µg/mL. For the same compound, in assay [3], the “PTIO radical scavenging activity (inhibition rate)” value was 38.9% (2.4%).

Values taken from article PMC8658773, “Two New Isoprenoid Flavonoids from Sophora flavescens with Antioxidant and Cytotoxic Activities” (Molecules, 2021).
